Experimental data reported in ChEMBL document CHEMBL4265943, “Design and synthesis of potent dual inhibitors of JAK2 and HDAC based on fusing the pharmacophores of XL019 and vorinostat” (Eur J Med Chem, 2018).
Calls of active or inactive are those of the source. The rule behind the calls is not given here.

Biological target: T1, Tyrosine-protein kinase JAK2 (Homo sapiens, UniProt O60674)
Assay: Inhibition of human JAK2 using poly(Glu:Tyr)(4:1) as substrate preincubated for 20 mins followed by [gamma33P]ATP addition measured after 120 mins by ion exchange filter paper method
Conditions: not given

T1 sequence (O60674 whole entry): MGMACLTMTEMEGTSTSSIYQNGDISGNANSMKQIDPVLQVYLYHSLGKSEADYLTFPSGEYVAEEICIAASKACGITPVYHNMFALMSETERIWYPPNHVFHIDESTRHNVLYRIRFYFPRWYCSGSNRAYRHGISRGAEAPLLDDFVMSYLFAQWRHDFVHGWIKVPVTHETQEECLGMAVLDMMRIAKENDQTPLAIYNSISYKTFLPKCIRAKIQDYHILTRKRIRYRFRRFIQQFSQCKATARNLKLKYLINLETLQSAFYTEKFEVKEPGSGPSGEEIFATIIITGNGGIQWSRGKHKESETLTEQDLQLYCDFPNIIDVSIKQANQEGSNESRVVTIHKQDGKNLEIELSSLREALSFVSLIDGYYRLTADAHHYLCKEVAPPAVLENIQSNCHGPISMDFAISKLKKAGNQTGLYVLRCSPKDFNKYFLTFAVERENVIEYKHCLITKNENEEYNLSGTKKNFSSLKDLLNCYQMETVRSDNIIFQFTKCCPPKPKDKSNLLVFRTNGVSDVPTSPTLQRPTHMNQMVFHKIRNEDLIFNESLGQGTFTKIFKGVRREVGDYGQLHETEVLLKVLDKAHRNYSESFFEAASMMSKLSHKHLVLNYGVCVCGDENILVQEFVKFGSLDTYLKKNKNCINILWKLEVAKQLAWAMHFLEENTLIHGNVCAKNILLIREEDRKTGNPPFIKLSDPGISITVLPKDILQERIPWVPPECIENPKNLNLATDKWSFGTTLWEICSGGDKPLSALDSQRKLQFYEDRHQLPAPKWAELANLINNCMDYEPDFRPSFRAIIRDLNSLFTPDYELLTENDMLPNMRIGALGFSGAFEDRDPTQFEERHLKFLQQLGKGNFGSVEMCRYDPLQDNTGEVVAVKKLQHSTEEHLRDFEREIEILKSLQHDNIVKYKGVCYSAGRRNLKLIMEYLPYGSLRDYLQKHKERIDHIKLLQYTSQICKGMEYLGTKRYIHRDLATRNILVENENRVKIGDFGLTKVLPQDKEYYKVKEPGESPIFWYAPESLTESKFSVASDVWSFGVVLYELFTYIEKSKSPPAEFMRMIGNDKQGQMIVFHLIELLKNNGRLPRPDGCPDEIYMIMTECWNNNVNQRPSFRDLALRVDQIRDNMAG

| IC50 | SMILES |
| --- | --- |
| 0.0026 µM | CC(=O)Nc1ccc(-c2ccnc(Nc3cccc(NC(=O)CCCCC(=O)NO)c3)n2)cc1 |
| 0.0009 µM | CC(=O)Nc1ccc(-c2ccnc(Nc3ccc(NC(=O)CCCCCCC(=O)NO)cc3)n2)cc1 |

Biological target: Histone deacetylase 1 (Homo sapiens, UniProt Q13547)
Assay: Inhibition of HDAC1 (unknown origin) using Arg-His-Lys-Lys(Ac) as substrate preincubated with enzyme followed by substrate addition for 2 hrs and measured for 1.5 hrs at 15 mins time interval by fluorescence assay
Conditions: not given

Sequence of Histone deacetylase 1 (Q13547 whole entry): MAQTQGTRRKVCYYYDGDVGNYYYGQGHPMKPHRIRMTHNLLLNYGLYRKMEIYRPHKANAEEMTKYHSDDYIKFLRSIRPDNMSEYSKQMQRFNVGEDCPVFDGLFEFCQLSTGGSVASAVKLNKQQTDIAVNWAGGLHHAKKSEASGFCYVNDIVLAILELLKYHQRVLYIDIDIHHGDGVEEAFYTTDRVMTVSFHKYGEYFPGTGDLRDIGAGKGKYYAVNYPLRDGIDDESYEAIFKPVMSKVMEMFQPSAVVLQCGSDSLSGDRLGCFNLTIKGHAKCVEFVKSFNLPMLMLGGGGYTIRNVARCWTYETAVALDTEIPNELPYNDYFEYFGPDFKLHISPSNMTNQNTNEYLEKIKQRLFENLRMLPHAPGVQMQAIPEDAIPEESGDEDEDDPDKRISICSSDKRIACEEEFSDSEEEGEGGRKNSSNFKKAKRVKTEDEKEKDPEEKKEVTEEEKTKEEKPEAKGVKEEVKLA

| IC50 | SMILES |
| --- | --- |
| 0.384 µM | CC(=O)Nc1ccc(-c2ccnc(Nc3cccc(NC(=O)CCCCC(=O)NO)c3)n2)cc1 |
| 0.774 µM | CC(=O)Nc1ccc(-c2ccnc(Nc3ccc(NC(=O)CCCCCCC(=O)NO)cc3)n2)cc1 |

Biological target: T2, Protein deacetylase HDAC6 (Homo sapiens, UniProt Q9UBN7)
T2 sequence (Q9UBN7 whole entry): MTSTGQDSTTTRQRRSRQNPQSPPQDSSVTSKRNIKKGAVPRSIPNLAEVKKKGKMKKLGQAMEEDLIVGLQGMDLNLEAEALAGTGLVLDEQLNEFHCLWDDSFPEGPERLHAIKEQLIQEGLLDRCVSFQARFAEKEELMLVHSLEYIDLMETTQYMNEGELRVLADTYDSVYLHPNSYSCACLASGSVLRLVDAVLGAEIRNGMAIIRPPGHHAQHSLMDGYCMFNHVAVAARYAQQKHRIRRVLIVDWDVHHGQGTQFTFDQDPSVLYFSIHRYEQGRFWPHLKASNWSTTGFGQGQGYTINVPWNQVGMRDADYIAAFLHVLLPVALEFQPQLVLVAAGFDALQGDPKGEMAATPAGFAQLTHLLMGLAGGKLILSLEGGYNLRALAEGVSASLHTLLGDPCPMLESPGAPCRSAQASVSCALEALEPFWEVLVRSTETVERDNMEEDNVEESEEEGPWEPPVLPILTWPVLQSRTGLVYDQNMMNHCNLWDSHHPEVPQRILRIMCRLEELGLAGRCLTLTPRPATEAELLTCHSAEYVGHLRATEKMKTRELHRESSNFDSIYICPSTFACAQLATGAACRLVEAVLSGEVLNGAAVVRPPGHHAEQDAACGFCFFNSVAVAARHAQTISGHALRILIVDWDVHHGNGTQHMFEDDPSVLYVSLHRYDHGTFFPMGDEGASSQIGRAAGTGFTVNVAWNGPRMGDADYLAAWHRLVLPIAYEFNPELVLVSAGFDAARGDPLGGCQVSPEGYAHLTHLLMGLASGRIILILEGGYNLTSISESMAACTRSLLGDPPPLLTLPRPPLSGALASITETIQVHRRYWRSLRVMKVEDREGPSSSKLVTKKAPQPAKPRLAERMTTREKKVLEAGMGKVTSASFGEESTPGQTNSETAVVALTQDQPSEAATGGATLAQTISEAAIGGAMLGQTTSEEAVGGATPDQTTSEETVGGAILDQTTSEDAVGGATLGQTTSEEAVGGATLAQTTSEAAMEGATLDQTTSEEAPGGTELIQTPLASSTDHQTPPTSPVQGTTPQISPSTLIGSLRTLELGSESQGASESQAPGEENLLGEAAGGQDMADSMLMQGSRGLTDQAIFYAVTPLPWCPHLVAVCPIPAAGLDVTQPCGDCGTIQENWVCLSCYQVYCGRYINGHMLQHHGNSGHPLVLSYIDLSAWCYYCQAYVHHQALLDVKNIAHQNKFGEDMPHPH
Assay: Inhibition of HDAC6 (unknown origin) using Arg-His-Lys-Lys(Ac) as substrate preincubated with enzyme followed by substrate addition for 2 hrs and measured for 1.5 hrs at 15 mins time interval by fluorescence assay
Conditions: not given

| IC50 | SMILES |
| --- | --- |
| 0.0046 µM | CC(=O)Nc1ccc(-c2ccnc(Nc3cccc(NC(=O)CCCCC(=O)NO)c3)n2)cc1 |
| 0.0001 µM | CC(=O)Nc1ccc(-c2ccnc(Nc3ccc(NC(=O)CCCCCCC(=O)NO)cc3)n2)cc1 |

Organism: Homo sapiens
Assay: Selectivity ratio of IC50 for HDAC1 (unknown origin) to IC50 for HDAC6 (unknown origin)
Conditions: not given

| Ratio IC50 | SMILES |
| --- | --- |
| 100 | CC(=O)Nc1ccc(-c2ccnc(Nc3cccc(NC(=O)CCCCC(=O)NO)c3)n2)cc1 |
| > 7000 | CC(=O)Nc1ccc(-c2ccnc(Nc3ccc(NC(=O)CCCCCCC(=O)NO)cc3)n2)cc1 |

Tested on: HCT-116
Assay: Antiproliferative activity against human HCT116 cells after 72 hrs by MTT assay
Type: functional, cell-based
Conditions: HCT-116, 72 h

| IC50 | SMILES |
| --- | --- |
| 34.1 µM | CC(=O)Nc1ccc(-c2ccnc(Nc3cccc(NC(=O)CCCCC(=O)NO)c3)n2)cc1 |
| 1.97 µM | CC(=O)Nc1ccc(-c2ccnc(Nc3ccc(NC(=O)CCCCCCC(=O)NO)cc3)n2)cc1 |

Tested on: MDA-MB-231
Assay: Antiproliferative activity against human MDA-MB-231 cells after 72 hrs by MTT assay
Type: functional, cell-based
Conditions: MDA-MB-231, 72 h

| IC50 | SMILES |
| --- | --- |
| 14.6 µM | CC(=O)Nc1ccc(-c2ccnc(Nc3cccc(NC(=O)CCCCC(=O)NO)c3)n2)cc1 |
| 1.54 µM | CC(=O)Nc1ccc(-c2ccnc(Nc3ccc(NC(=O)CCCCCCC(=O)NO)cc3)n2)cc1 |

Tested on: MCF7
Assay: Antiproliferative activity against human MCF7 cells after 72 hrs by MTT assay
Type: functional, cell-based
Conditions: MCF7, 72 h

| IC50 | SMILES |
| --- | --- |
| 26.7 µM | CC(=O)Nc1ccc(-c2ccnc(Nc3cccc(NC(=O)CCCCC(=O)NO)c3)n2)cc1 |
| 1.09 µM | CC(=O)Nc1ccc(-c2ccnc(Nc3ccc(NC(=O)CCCCCCC(=O)NO)cc3)n2)cc1 |

Tested on: PC-3
Assay: Antiproliferative activity against human PC3 cells after 72 hrs by MTT assay
Type: functional, cell-based
Conditions: PC-3, 72 h

| IC50 | SMILES |
| --- | --- |
| 18.6 µM | CC(=O)Nc1ccc(-c2ccnc(Nc3cccc(NC(=O)CCCCC(=O)NO)c3)n2)cc1 |
| 3.84 µM | CC(=O)Nc1ccc(-c2ccnc(Nc3ccc(NC(=O)CCCCCCC(=O)NO)cc3)n2)cc1 |

Tested on: not listed separately
Assay: Antiproliferative activity against human AC10 cells after 72 hrs by MTT assay
Type: cell-based
Conditions: not given

| SMILES | CC50 at 72 h |
| --- | --- |
| CC(=O)Nc1ccc(-c2ccnc(Nc3ccc(NC(=O)CCCCCCC(=O)NO)cc3)n2)cc1 | 19.5 µM |

Tested on: not listed separately
Assay: Antiproliferative activity against mouse TAMH cells after 72 hrs by MTT assay
Type: cell-based
Conditions: not given

| SMILES | CC50 at 72 h |
| --- | --- |
| CC(=O)Nc1ccc(-c2ccnc(Nc3ccc(NC(=O)CCCCCCC(=O)NO)cc3)n2)cc1 | 12.5 µM |

Tested on: HEL 92.1.7
Assay: cells
Type: functional, cell-based
Conditions: Homo sapiens, HEL 92.1.7, 72 h
Description: Antiproliferative activity against human HEL 92.1.7 cells after 72 hrs by MTT assay

| IC50 | SMILES |
| --- | --- |
| > 10 µM | CC(=O)Nc1ccc(-c2ccnc(Nc3cccc(NC(=O)CCCCC(=O)NO)c3)n2)cc1 |
| 2.53 µM | CC(=O)Nc1ccc(-c2ccnc(Nc3ccc(NC(=O)CCCCCCC(=O)NO)cc3)n2)cc1 |

Tested on: Jurkat
Assay: Antiproliferative activity against human Jurkat cells after 72 hrs by MTT assay
Type: functional, cell-based
Conditions: not given

| IC50 | SMILES |
| --- | --- |
| > 10 µM | CC(=O)Nc1ccc(-c2ccnc(Nc3cccc(NC(=O)CCCCC(=O)NO)c3)n2)cc1 |

Tested on: KMS-12-BM
Assay: Antiproliferative activity against human KMS-12-BM cells after 72 hrs by MTT assay
Type: functional, cell-based
Conditions: not given

| SMILES | IC50 |
| --- | --- |
| CC(=O)Nc1ccc(-c2ccnc(Nc3ccc(NC(=O)CCCCCCC(=O)NO)cc3)n2)cc1 | 1.16 µM |

Tested on: not listed separately
Assay: Antiproliferative activity against human XG6 cells after 72 hrs by MTT assay
Type: functional, cell-based
Conditions: XG6, 72 h

| SMILES | IC50 |
| --- | --- |
| CC(=O)Nc1ccc(-c2ccnc(Nc3ccc(NC(=O)CCCCCCC(=O)NO)cc3)n2)cc1 | 3.17 µM |

Tested on: not listed separately
Assay: Selectivity index, ratio of CC50 for human AC10 cells to IC50 for human KMS-12-BM cells
Type: toxicity
Conditions: AC10 cells (CC50) and KMS-12-BM cells (IC50)

| SMILES | selectivity ratio |
| --- | --- |
| CC(=O)Nc1ccc(-c2ccnc(Nc3ccc(NC(=O)CCCCCCC(=O)NO)cc3)n2)cc1 | 16.8 |

Tested on: not listed separately
Assay: Selectivity index, ratio of CC50 for mouse TAMH cells to IC50 for human KMS-12-BM cells
Type: toxicity
Conditions: TAMH cells (CC50) and KMS-12-BM cells (IC50)

| SMILES | selectivity ratio |
| --- | --- |
| CC(=O)Nc1ccc(-c2ccnc(Nc3ccc(NC(=O)CCCCCCC(=O)NO)cc3)n2)cc1 | 10.8 |

Tested on: not listed separately
Assay: Selectivity index, ratio of CC50 for human AC10 cells to IC50 for human XG6 cells
Type: toxicity
Conditions: AC10 cells (CC50) and XG6 cells (IC50)

| SMILES | selectivity ratio |
| --- | --- |
| CC(=O)Nc1ccc(-c2ccnc(Nc3ccc(NC(=O)CCCCCCC(=O)NO)cc3)n2)cc1 | 6.16 |

Tested on: not listed separately
Assay: Selectivity index, ratio of CC50 for mouse TAMH cells to IC50 for human XG6 cells
Type: toxicity
Conditions: TAMH cells (CC50) and XG6 cells (IC50)

| SMILES | selectivity ratio |
| --- | --- |
| CC(=O)Nc1ccc(-c2ccnc(Nc3ccc(NC(=O)CCCCCCC(=O)NO)cc3)n2)cc1 | 3.95 |

Biological target: T3, Protein deacetylase HDAC6 (Homo sapiens) (UniProt Q9UBN7)
T3 sequence (whole entry): T2 sequence (Q9UBN7 whole entry)
Assay: Inhibition of HDAC6 in human HEL 92.1.7 cells assessed as increase in acetylated tubulin level at 1 uM after 1 hr by immunoblot analysis
Type: cell-based
Conditions: not given

| inhibition | SMILES |
| --- | --- |
| Active | CC(=O)Nc1ccc(-c2ccnc(Nc3ccc(NC(=O)CCCCCCC(=O)NO)cc3)n2)cc1 |

Biological target: Histone deacetylase 1/2/3 (Homo sapiens) (UniProt Q13547+O15379+Q92769)
Assay: Inhibition of HDAC1/HDAC2/HDAC3 in human HEL 92.1.7 cells assessed as increase in acetylated […] level at 1 uM after 1 hr by immunoblot analysis
Type: cell-based
Conditions: not given

| inhibition | SMILES |
| --- | --- |
| Active | CC(=O)Nc1ccc(-c2ccnc(Nc3ccc(NC(=O)CCCCCCC(=O)NO)cc3)n2)cc1 |

Biological target: T1, Tyrosine-protein kinase JAK2
Assay: Inhibition of JAK2 in human HeLa cells assessed as reduction in STAT5 phosphorylation at 15 to 20 uM after 1 hr by immunoblot analysis
Type: cell-based
Conditions: not given

| inhibition | SMILES |
| --- | --- |
| Active | CC(=O)Nc1ccc(-c2ccnc(Nc3ccc(NC(=O)CCCCCCC(=O)NO)cc3)n2)cc1 |

Biological target: T1, Tyrosine-protein kinase JAK2
Assay: Inhibition of JAK2 in human HeLa cells assessed as increase in JAK2 phosphorylation at 15 to 20 uM after 1 hr by immunoblot analysis
Type: cell-based
Conditions: not given

| inhibition | SMILES |
| --- | --- |
| Active | CC(=O)Nc1ccc(-c2ccnc(Nc3ccc(NC(=O)CCCCCCC(=O)NO)cc3)n2)cc1 |
